From US9642854B2, “Flavanoid compounds and process for preparation thereof” (Council of Scientific & Industrial Research, priority 2009, dated 2017)
Converted amounts (≈) assume the structure as drawn. Read-outs that look alike come from different tables or passages of the source.

Experiments:
H. pylori [1] = experiment: Anti H. pylori spectrum (MIC) by agar dilution method; assay type: cell-based, Helicobacter pylori; settings: for MIC / MIC50: Helicobacter pylori; for MIC50: MIC against 50% of the strains of the panel, read-out: MIC50
Procedure: MIC was determined using agar dilution assay following the CLSI® guidelines. Six clinical isolates and four standard strains were used for this study. Five microlitre of freshly grown 3-day old culture (˜1×10^8 CFU/mL) was streaked in plates containing 2-fold serial dilution of the compounds ranging […], and incubated under microaerophilic condition at 37° C. After 72 h, the plates were inspected visually for absence of growth to assess the MIC values. The experiment was performed in duplicates. MIC50 is defined as the dose (μg/ml) required for killing 50% of the strains.
Plates contained two-fold serial dilutions of the compounds ranging from […]. Five microlitres of 3-day old freshly grown H. pylori culture (^˜10^8 CFU/mL) was inoculated onto drug-containing BHI agar plates supplemented with 7% FCS, 0.5% IsoVitalex and 0.0025% DENT®, which were then incubated for 3 days under microaerophilic condition at 37° C.

H. pylori [2] = experiment: Anti H. pylori screening by disc diffusion susceptibility assay; assay type: cell-based, Helicobacter pylori; settings: for Inhibition zone diameter (score): 100 and 200 mg/disc (so in the source); for Inhibition zone diameter (score) / zone of inhibition at 100 µg/disc: 72 h; for zone of inhibition at 100 µg/disc: Helicobacter pylori, 100 and 200 μg/disc, majority of the strains, read-out: Activity class by inhibition zone diameter
Procedure: The discs were impregnated with […] of each of the compounds, dissolved either in ethanol or DMSO, and the zone of inhibition was measured after 72 h of growth under microaerophilic conditions at 37° C. Inhibition zone diameter ranging 10-20 mm was given a score of ^+, 20-30 mm as ^++ and that of >30 mm as ^+++, as obtained employing dose range of […]/disc. The detailed structural information of the molecules is provided under ‘Description of the Compounds’.
Methods and protocols for the determination of inhibition zone diameter are as stated under Experiment 1, and that of MIC values by microbroth dilution assay as in Experiment 3. ‘Nil’ means zone of inhibition below 10 mm.
The anti H. pylori activity of all 16 flavonoid molecules, 2 naturally isolated and 14 synthetic derivatives, was screened by disc diffusion sensitivity assay employing 2 clinical strains HP001 and HP002, and three standard strains ATCC® 700392, 43504 and 49503. A 0.5 mL inoculum (10^8 CFU/mL) for each bacterial strain tested was flooded on freshly prepared Brain Heart Infusion (BHI) agar plates supplemented with 7% FCS, 0.5% IsoVitalex and 0.0025% DENT® and the discs (5 mm diameter) containing different compounds or antibiotics (dissolved either in ethanol or DMSO) were placed on the agar surface. After incubation for 3 days in a microaerophilic atmosphere at 37° C., the diameter of the zone of inhibition was measured (Glupczynsky, 1996; McNulty et al., 2002).

[3] = 72 h, panel of 6 clinical isolates and 4 standard strains, read-out: MIC Range
[4] = clinical strain HP001, read-out: MIC
[5] = clinical strain HP002, read-out: MIC
[6] = clinical strain HP003, read-out: MIC
[7] = clinical strain HP004, read-out: MIC
[8] = clinical strain HP005, read-out: MIC
[9] = clinical strain HP006, read-out: MIC
[10] = standard strain 43504, read-out: MIC
[11] = standard strain 43629, read-out: MIC
[12] = standard strain 49503, read-out: MIC
[13] = standard strain 700392, read-out: MIC
[14] = panel of 6 clinical isolates and 4 standard strains

Row | SMILES | MIC (H. pylori [1]; [3]) | MIC50 (H. pylori [1]) | MIC (H. pylori [1]; [4]) | MIC (H. pylori [1]; [5]) | MIC (H. pylori [1]; [6]) | MIC (H. pylori [1]; [7]) | MIC (H. pylori [1]; [8]) | MIC (H. pylori [1]; [9]) | MIC (H. pylori [1]; [10]) | MIC (H. pylori [1]; [11]) | MIC (H. pylori [1]; [12]) | MIC (H. pylori [1]; [13]) | MIC50 (H. pylori [1]; 72 h) | Inhibition zone diameter (score) (H. pylori [2]; ATCC standard strain 43504) | Inhibition zone diameter (score) (H. pylori [2]; ATCC standard strain 49503) | Inhibition zone diameter (score) (H. pylori [2]; ATCC standard strain 700392) | Inhibition zone diameter (score) (H. pylori [2]; clinical strain HP001) | Inhibition zone diameter (score) (H. pylori [2]; clinical strain HP002) | zone of inhibition at 100 µg/disc (H. pylori [2]) | further results
1 | CC1(C)S[C@@H]2[C@H](NC(=O)[C@H](N)c3ccc(O)cc3)C(=O)N2[C@H]1C(=O)O [Amoxicillin, reference compound] | 0.016 to 0.0625 µg/mL (≈ 0.0438 to 0.171 µM) | 0.032 µg/mL (≈ 0.0876 µM) | 0.032 µg/mL (≈ 0.0876 µM) | 0.032 µg/mL (≈ 0.0876 µM) | 0.016 µg/mL (≈ 0.0438 µM) | 0.016 µg/mL (≈ 0.0438 µM) | 0.016 µg/mL (≈ 0.0438 µM) | 0.016 µg/mL (≈ 0.0438 µM) | 0.0625 µg/mL (≈ 0.171 µM) | 0.032 µg/mL (≈ 0.0876 µM) | 0.032 µg/mL (≈ 0.0876 µM) | 0.0625 µg/mL (≈ 0.171 µM) |  |  |  |  |  |  |  | inhibition zone diameter (H. pylori [2]; clinical strains, 0.16 mg/disc): 10-16 mm; inhibition zone diameter (H. pylori [2]; standard strains, 0.5-1.0 mg/disc): 13-15 mm
2 | O=c1cc(-c2ccccc2)oc2cc(OCCCCCCN3CCOCC3)cc(O)c12 [CHM-1, 5-Hydroxy-7-(6-morpholin-4-yl-hexyloxy)-2-phenyl-chromen-4-one] | 6.25 to 25 µg/mL (≈ 14.8 to 59 µM) | 25 µg/mL (≈ 59 µM) | 25 µg/mL (≈ 59 µM) | 25 µg/mL (≈ 59 µM) | < 12.5 µg/mL | < 12.5 µg/mL | < 12.5 µg/mL | < 12.5 µg/mL | 25 µg/mL (≈ 59 µM) | 25 µg/mL (≈ 59 µM) | 25 µg/mL (≈ 59 µM) | 25 µg/mL (≈ 59 µM) | ~25 µg/mL (≈ 59 µM) | Nil (‘Nil’ means zone of inhibition below 10 mm) | + (Inhibition zone diameter ranging 10-20 mm was given a score of ^+) | + (Inhibition zone diameter ranging 10-20 mm was given a score of ^+) | + (Inhibition zone diameter ranging 10-20 mm was given a score of ^+) | + (Inhibition zone diameter ranging 10-20 mm was given a score of ^+) |  | 
3 | O=c1cc(-c2ccccc2)oc2cc(OCCCCN3CCOCC3)cc(O)c12 [CHM-3, 5-Hydroxy-7-(4-morpholin-4-yl-butoxy)-2-phenyl-chromen-4-one] | 50 to 100 µg/mL (≈ 126 to 253 µM) | 50 µg/mL (≈ 126 µM) | 50 µg/mL (≈ 126 µM) | 50 µg/mL (≈ 126 µM) | 100 µg/mL (≈ 253 µM) | 100 µg/mL (≈ 253 µM) | 100 µg/mL (≈ 253 µM) | 100 µg/mL (≈ 253 µM) | 50 µg/mL (≈ 126 µM) | 100 µg/mL (≈ 253 µM) | 50 µg/mL (≈ 126 µM) | 50 µg/mL (≈ 126 µM) | 50 µg/mL (≈ 126 µM) | + (Inhibition zone diameter ranging 10-20 mm was given a score of ^+) | ++ (20-30 mm as ^++) | + (Inhibition zone diameter ranging 10-20 mm was given a score of ^+) | ++ (20-30 mm as ^++) | ++ (20-30 mm as ^++) | 20 to 30 mm | MIC Range (H. pylori [1]; [14]): 50 to 100 µg/mL
4 | CN(C)CCCOc1cc(O)c2c(=O)cc(-c3ccccc3)oc2c1 [CHN-2, 7-(3-Dimethylamino-propoxy)-5-hydroxy-2-phenyl-chromen-4-one] | 6.25 to 25 µg/mL (≈ 18.4 to 73.7 µM) | 25 µg/mL (≈ 73.7 µM) | 25 µg/mL (≈ 73.7 µM) | 25 µg/mL (≈ 73.7 µM) | 12.5 µg/mL (≈ 36.8 µM) | 12.5 µg/mL (≈ 36.8 µM) | 25 µg/mL (≈ 73.7 µM) | 25 µg/mL (≈ 73.7 µM) | 50 µg/mL (≈ 147 µM) | 12.5 µg/mL (≈ 36.8 µM) | 25 µg/mL (≈ 73.7 µM) | 50 µg/mL (≈ 147 µM) | ~25 µg/mL (≈ 73.7 µM) | ++ (20-30 mm as ^++) | ++ (20-30 mm as ^++) | + (Inhibition zone diameter ranging 10-20 mm was given a score of ^+) | ++ (20-30 mm as ^++) | ++ (20-30 mm as ^++) | 20 to 30 mm | MIC Range (H. pylori [1]; [14]): 12.5 to 50 µg/mL
5 | CN(C)CCCCOc1cc(O)c2c(=O)cc(-c3ccccc3)oc2c1 [CHN-3, 7-(4-Dimethylamino-butoxy)-5-hydroxy-2-phenyl-chromen-4-one] | 6.25 to 25 µg/mL (≈ 17.7 to 70.7 µM) | 25 µg/mL (≈ 70.7 µM) | 25 µg/mL (≈ 70.7 µM) | 25 µg/mL (≈ 70.7 µM) | < 12.5 µg/mL | < 12.5 µg/mL | < 12.5 µg/mL | < 12.5 µg/mL | 25 µg/mL (≈ 70.7 µM) | 25 µg/mL (≈ 70.7 µM) | 25 µg/mL (≈ 70.7 µM) | 25 µg/mL (≈ 70.7 µM) | ~25 µg/mL (≈ 70.7 µM) | + (Inhibition zone diameter ranging 10-20 mm was given a score of ^+) | ++ (20-30 mm as ^++) | + (Inhibition zone diameter ranging 10-20 mm was given a score of ^+) | ++ (20-30 mm as ^++) | ++ (20-30 mm as ^++) | 20 to 30 mm | 
6 | O=c1cc(-c2ccccc2)oc2cc(OCCCN3CCCCC3)cc(O)c12 [CPP-2, 5-Hydroxy-2-phenyl-7-(3-piperidin-1-yl-propoxy)-chromen-4-one] | 6.25 to 100 µg/mL (≈ 16.5 to 264 µM) | 12.5 µg/mL (≈ 32.9 µM) | 25 µg/mL (≈ 65.9 µM) | 25 µg/mL (≈ 65.9 µM) | < 12.5 µg/mL | < 12.5 µg/mL | < 12.5 µg/mL | < 12.5 µg/mL | 12.5 µg/mL (≈ 32.9 µM) | 100 µg/mL (≈ 264 µM) | 25 µg/mL (≈ 65.9 µM) | 25 µg/mL (≈ 65.9 µM) | ~12.5 µg/mL (≈ 32.9 µM) | + (Inhibition zone diameter ranging 10-20 mm was given a score of ^+) | + (Inhibition zone diameter ranging 10-20 mm was given a score of ^+) | + (Inhibition zone diameter ranging 10-20 mm was given a score of ^+) | + (Inhibition zone diameter ranging 10-20 mm was given a score of ^+) | + (Inhibition zone diameter ranging 10-20 mm was given a score of ^+) |  | 
7 | Cc1ncc([N+](=O)[O-])n1CCO [Metronidazole, reference compound] |  | 50 µg/mL (≈ 292 µM) |  | > 100 µg/mL | 100 µg/mL (≈ 584 µM) | 100 µg/mL (≈ 584 µM) | 25 µg/mL (≈ 146 µM) | 25 µg/mL (≈ 146 µM) | 50 µg/mL (≈ 292 µM) | 1.56 µg/mL (≈ 9.11 µM) | 1.56 µg/mL (≈ 9.11 µM) | 1.56 µg/mL (≈ 9.11 µM) |  |  |  |  |  |  |  | 
8 | CN1CCN(CCCCOc2cc(O)c3c(=O)cc(-c4ccccc4)oc3c2)CC1 [NMC-3, 5-Hydroxy-7-[4-(4-methyl-piperazin-1-yl)-butoxy]-2-phenyl-chromen-4-one] | 6.25 to 25 µg/mL (≈ 15.3 to 61.2 µM) | 25 µg/mL (≈ 61.2 µM) | 25 µg/mL (≈ 61.2 µM) | 25 µg/mL (≈ 61.2 µM) | < 12.5 µg/mL | < 12.5 µg/mL | < 12.5 µg/mL | < 12.5 µg/mL | 25 µg/mL (≈ 61.2 µM) | 25 µg/mL (≈ 61.2 µM) | 25 µg/mL (≈ 61.2 µM) | 25 µg/mL (≈ 61.2 µM) | ~25 µg/mL (≈ 61.2 µM) | + (Inhibition zone diameter ranging 10-20 mm was given a score of ^+) | + (Inhibition zone diameter ranging 10-20 mm was given a score of ^+) | + (Inhibition zone diameter ranging 10-20 mm was given a score of ^+) | + (Inhibition zone diameter ranging 10-20 mm was given a score of ^+) | ++ (20-30 mm as ^++) |  | 
